Data published in patent US11524938B2, “Aromatic sulfonamide derivatives” (Bayer Pharma Aktiengesellschaft, priority 2016, dated 2022).

Biological target: T1, human P2X4 (Homo sapiens, UniProt Q99571)
T1 sequence (Q99571 1-388): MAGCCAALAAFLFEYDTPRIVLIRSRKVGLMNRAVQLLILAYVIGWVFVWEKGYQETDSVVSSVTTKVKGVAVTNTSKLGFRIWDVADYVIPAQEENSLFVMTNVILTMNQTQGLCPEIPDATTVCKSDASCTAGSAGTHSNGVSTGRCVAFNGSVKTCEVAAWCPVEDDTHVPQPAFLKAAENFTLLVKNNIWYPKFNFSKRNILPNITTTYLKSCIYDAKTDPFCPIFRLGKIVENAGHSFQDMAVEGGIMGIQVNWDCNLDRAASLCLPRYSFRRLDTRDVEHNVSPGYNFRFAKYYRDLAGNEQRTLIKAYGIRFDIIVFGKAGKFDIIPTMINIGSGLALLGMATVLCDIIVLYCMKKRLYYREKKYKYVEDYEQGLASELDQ
Assay: Human P2X4 HEK Cell FLIPR Assay
Format: cell-based
Details: agonist Bz-ATP at EC80; for Emax: HEK293, HEK293 cells, read-out: Human P2X4 HEK Cells (FLIPR Assay) avg Efficacy [%]; for Emax / Human P2X4 HEK Cells (FLIPR Assay) avg Efficacy [%]: percentage of maximal inhibition; for IC50 / Human P2X4 HEK Cells (FLIPR Assay) avg Efficacy [%]: HEK293 cells; for IC50: individual values listed where some fall outside detection range
Protocol: HEK293 cells stably expressing human P2X4 were plated in poly-D-lysine-coated 384-well plates at a seeding density of 30000 cells/well and incubated overnight. P2X4 function was assessed by measuring intracellular calcium changes using the calcium-chelating dye Fluo8-AM (Molecular Devices) on a fluorescent imaging plate reader (FLEX/FLIPR station; Molecular Devices). On the day of the assay, the medium was removed and the cells were incubated for 30 min at 37° C. and 5% CO2 in 30 μL of dye buffer (Hank's balanced salt solution, 10 mM HEPES, 1.8 mM CaCl2, 1 mM MgCl2, 2 mM probenecid, 5 mM D-glucose monohydrate, 5 μM Fluo8-AM, pH=7.4). Compounds diluted in probenecid buffer (Hank's balanced salt solution, 10 mM HEPES, 1.8 mM CaCl2, 1 mM MgCl2, 2 mM probenecid, 5 mM D-glucose monohydrate, pH=7.4) were added in a volume of 10 μL and allowed to incubate for 30 min at room temperature. The final assay DMSO concentration was 0.5%. The agonist, Bz-ATP (Tocris), was added in a volume of 10 μL at a concentration representing the EC80 value. The EC80 value of Bz-ATP was determined each assay day prior to compound profiling. The fluorescence was measured for an interval of 120 sec at 2 sec intervals. The excitation and emission wavelengths used to monitor fluorescence were 470-495 nm and 515-575 nm, respectively. The data was analyzed based on the increase in peak relative fluorescence units (RFU) compared to the basal fluorescence and the data was normalized to the agonist control. The compounds were tested in triplicates per plate and mean values were plotted in Excel XLFit to determine IC50 values, percentage of maximal inhibition and the Hill coefficients.

Row | Emax [%] | IC50 [nM] | Human P2X4 HEK Cells (FLIPR Assay) avg Efficacy [%] | SMILES
1 | 63 | 172 |  | CC(C(=O)Nc1cnn(-c2ccc(NC(=O)Cc3ccccc3Cl)cc2S(N)(=O)=O)c1)C(F)(F)F (racemic) [Example 508, N-[1-(4-{[(2-Chlorophenyl)acetyl]amino}-2-sulfamoylphenyl)-1H-pyrazol-4-yl]-3,3,3-trifluoro-2-methylpropanamide]
2 | 71 | 326 |  | CC(C(=O)Nc1cnn(-c2ccc(NC(=O)Cc3ccccc3Cl)cc2S(N)(=O)=O)c1)C(F)(F)F (single isomer, unassigned) [Example 509, N-[1-(4-{[(2-Chlorophenyl)acetyl]amino}-2-sulfamoylphenyl)-1H-pyrazol-4-yl]-3,3,3-trifluoro-2-methylpropanamide]
3 |  | 439 | 73 | CC(C(=O)Nc1cnn(-c2ccc(NC(=O)Cc3ccccc3Cl)cc2S(N)(=O)=O)c1)C(F)(F)F (single isomer, unassigned) [Example 510, N-[1-(4-{[(2-Chlorophenyl)acetyl]amino}-2-sulfamoylphenyl)-1H-pyrazol-4-yl]-3,3,3-trifluoro-2-methylpropanamide]
4 | 76 | 4250 |  | C[C@H]1CC[C@H](C)N1c1cnn(-c2ccc(NC(=O)Cc3ccccc3Cl)cc2S(N)(=O)=O)c1 (single isomer, unassigned) [Example 512, 2-(2-Chlorophenyl)-N-(4-{4-[(trans)-2,5-dimethylpyrrolidin-1-yl]-1H-pyrazol-1-yl}-3-sulfamoylphenyl)acetamide]
5 |  | 893 | 94 | C[C@H]1CC[C@H](C)N1c1cnn(-c2ccc(NC(=O)Cc3ccccc3Cl)cc2S(N)(=O)=O)c1 (single isomer, unassigned) [Example 513, 2-(2-Chlorophenyl)-N-(4-{4-[(trans)-2,5-dimethylpyrrolidin-1-yl]-1H-pyrazol-1-yl}-3-sulfamoylphenyl)acetamide]
6 | 67 |  |  | NS(=O)(=O)c1cc(NC(=O)Cc2ccccc2F)ccc1-n1cc(C(F)(F)F)cn1 [Example 20, 2-(2-Fluorophenyl)-N-{3-sulfamoyl-4-[4-(trifluoromethyl)-1H-pyrazol-1-yl]phenyl}-acetamide]
7 | 67 | 170 |  | NS(=O)(=O)c1cc(NC(=O)Cc2ccccc2C(F)F)ccc1-n1cc(C(F)(F)F)cn1 [Example 21, 2-[2-(Difluoromethyl)phenyl]-N-{3-sulfamoyl-4-[4-(trifluoromethyl)-1H-pyrazol-1-yl]phenyl}acetamide]
8 | 76 | 224 |  | NS(=O)(=O)c1cc(NC(=O)Cc2ccccc2C(F)(F)F)ccc1-n1cc(C(F)(F)F)cn1 [Example 22, N-{3-Sulfamoyl-4-[4-(trifluoromethyl)-1H-pyrazol-1-yl]phenyl}-2-[2-(trifluoromethyl)-phenyl]acetamide]
9 | 89 | 1180 |  | CC(C)(C)c1ncn(-c2ccc(NC(=O)Cc3ccccc3Cl)cc2S(N)(=O)=O)n1 [Example 23, N-[4-(3-tert-Butyl-1H-1,2,4-triazol-1-yl)-3-sulfamoylphenyl]-2-(2-chlorophenyl)-acetamide]
10 | 93 |  |  | NS(=O)(=O)c1cc(NC(=O)Cc2ccccc2Cl)ccc1-n1cc(Cl)cn1 [Example 25, 2-(2-Chlorophenyl)-N-[4-(4-chloro-1H-pyrazol-1-yl)-3-sulfamoylphenyl]acetamide]

The remaining lines, values behind:

Row | SMILES | Emax [%] | IC50 [nM] | Human P2X4 HEK Cells (FLIPR Assay) avg Efficacy [%]
11 | NS(=O)(=O)c1cc(NC(=O)Cc2ccccc2Cl)ccc1-n1ccc(Cl)cc1=O [Example 2, N-[4-(4-Chloro-2-oxopyridin-1(2H)-yl)-3-sulfamoylphenyl]-2-(2-chlorophenyl)-acetamide] | 50 | 19400 | 
12 | NS(=O)(=O)c1cc(NC(=O)Cc2ccccc2Cl)ccc1-n1cc(Cl)cc(Cl)c1=O [Example 3, 2-(2-Chlorophenyl)-N-[4-(3,5-dichloro-2-oxopyridin-1(2H)-yl)-3-sulfamoylphenyl]-acetamide] | 76 | 942 | 
13 | NS(=O)(=O)c1cc(NC(=O)Cc2ccccc2Cl)ccc1-n1cccc(Cl)c1=O [Example 4, N-[4-(3-Chloro-2-oxopyridin-1(2H)-yl)-3-sulfamoylphenyl]-2-(2-chlorophenyl)-acetamide] | 83 | 259 | 
14 | Cc1ncn(-c2ccc(NC(=O)Cc3ccccc3Cl)cc2S(N)(=O)=O)n1 [Example 5, 2-(2-Chlorophenyl)-N-[4-(3-methyl-1H-1,2,4-triazol-1-yl)-3-sulfamoylphenyl]-acetamide] | 91 | 249 | 
15 | Cc1ncnn1-c1ccc(NC(=O)Cc2ccccc2Cl)cc1S(N)(=O)=O [Example 6, 2-(2-Chlorophenyl)-N-[4-(5-methyl-1H-1,2,4-triazol-1-yl)-3-sulfamoylphenyl]-acetamide] | 84 | 1070 | 
16 | NS(=O)(=O)c1cc(NC(=O)Cc2ccccc2Cl)ccc1-n1cnc(C(F)(F)F)n1 [Example 7, 2-(2-Chlorophenyl)-N-{3-sulfamoyl-4-[3-(trifluoromethyl)-1H-1,2,4-triazol-1-yl]-phenyl}acetamide] | 73 | 3080 | 
17 | Cc1nc(C(F)(F)F)nn1-c1ccc(NC(=O)Cc2ccccc2Cl)cc1S(N)(=O)=O [Example 8, 2-(2-Chlorophenyl)-N-{4-[5-methyl-3-(trifluoromethyl)-1H-1,2,4-triazol-1-yl]-3-sulfamoylphenyl}acetamide] | 79 | 2560 | 
18 | NS(=O)(=O)c1cc(NC(=O)Cc2ccccc2Cl)ccc1-n1ccnc1 [Example 9, 2-(2-Chlorophenyl)-N-[4-(1H-imidazol-1-yl)-3-sulfamoylphenyl]acetamide] | 83 | 7 | 
19 | NS(=O)(=O)c1cc(NC(=O)Cc2ccccc2Cl)ccc1-n1cnc(C(F)(F)F)c1 [Example 10, 2-(2-Chlorophenyl)-N-{3-sulfamoyl-4-[4-(trifluoromethyl)-1H-imidazol-1-yl]phenyl}-acetamide] | 81 | 7 | 
20 | NS(=O)(=O)c1cc(NC(=O)Cc2ccccc2Cl)ccc1-n1ccc(C(F)(F)F)n1 [Example 11, 2-(2-Chlorophenyl)-N-{3-sulfamoyl-4-[3-(trifluoromethyl)-1H-pyrazol-1-yl]phenyl}-acetamide] | 31 | > 25000 | 
21 | NS(=O)(=O)c1cc(NC(=O)Cc2ccccc2Cl)ccc1-n1ccc(C(F)F)n1 [Example 12, 2-(2-Chlorophenyl)-N-{4-[3-(difluoromethyl)-1H-pyrazol-1-yl]-3-sulfamoyl-phenyl}acetamide] | 34 | > 25000 | 
22 | NS(=O)(=O)c1cc(NC(=O)Cc2ccccc2Cl)ccc1-n1nc(C(F)F)cc1C1CC1 [Example 13, 2-(2-Chlorophenyl)-N-{4-[5-cyclopropyl-3-(difluoromethyl)-1H-pyrazol-1-yl]-3-sulfamoylphenyl}acetamide] | 100 | 514 | 
23 | Cc1cn(-c2ccc(NC(=O)Cc3ccccc3Cl)cc2S(N)(=O)=O)nc1C(F)(F)F [Example 14, 2-(2-Chlorophenyl)-N-{4-[4-methyl-3-(trifluoromethyl)-1H-pyrazol-1-yl]-3-sulfamoylphenyl}acetamide] | 26 | > 25000 | 
24 | Cc1cc(C(F)(F)F)nn1-c1ccc(NC(=O)Cc2ccccc2Cl)cc1S(N)(=O)=O [Example 15, 2-(2-Chlorophenyl)-N-{4-[5-methyl-3-(trifluoromethyl)-1H-pyrazol-1-yl]-3-sulfamoylphenyl}acetamide] | 99 | 379 | 
25 | NS(=O)(=O)c1cc(NC(=O)Cc2ccccc2Cl)ccc1-n1cncn1 [Example 16, 2-(2-Chlorophenyl)-N-[3-sulfamoyl-4-(1H-1,2,4-triazol-1-yl)phenyl]acetamide] | 89 | 262 | 
26 | NS(=O)(=O)c1cc(NC(=O)Cc2ccccc2Cl)ccc1-n1cnc(C(F)F)n1 [Example 17, 2-(2-Chlorophenyl)-N-{4-[3-(difluoromethyl)-1H-1,2,4-triazol-1-yl]-3-sulfamoyl-phenyl}acetamide] | 89 | 288 | 
27 | NS(=O)(=O)c1cc(NC(=O)Cc2ccccc2F)ccc1-n1cnc(C(F)F)n1 [Example 18, N-{4-[3-(Difluoromethyl)-1H-1,2,4-triazol-1-yl]-3-sulfamoylphenyl}-2-(2-fluoro-phenyl)acetamide] | 66 | 4700 | 
